Read-outs that look alike come from different tables or passages of the source.
Columns and labels:
[1] = test system: skin (facies medialis brachii of 20 subjects); details: in vivo
Protocol: (§1) As the safety test, irritation to the skin was examined by the following method. Each sample of the alpha-hydroxy fatty acid derivatives obtained in the Examples prepared by dissolving in olive oil in the concentration of 50 wt % and an adhesive plaster for patch test was impregnated with 1 ml of the sample. The adhesive plaster was put on the facies medialis brachii of 20 subjects for 24 hours. Irritation was evaluated 24 hours after removing the patch.

[2] = test system: skin (facies medialis brachii of 20 subjects); assay: Safety test: irritation to the skin, 24 h patch test; details: 50 wt % in olive oil, 1 ml on adhesive plaster, 24 hours on facies medialis brachii, evaluated 24 hours after removing the patch, subjects with clear erythema
Protocol: as §1

| Positive percentage [1] [%] | melting point [°C] | Compound | Positive percentage [2] [%] |
| --- | --- | --- | --- |
| 0 | – | 2-long-chain branched fatty acid (12-31) oxypalmitic acid palmityl ester | – |
| – | 35.1 | CCCCCCCCCCCCCCCCOC(=O)C(CCCCCCCCCCCCCC)OC(C)=O (stereo not shown) [2-acetyloxypalmitic acid palmityl ester] | 0 |
| – | – | CCCCCCCCCCCCCCCCC(OC(C)=O)C(=O)OCCCCCCCCCCCCCCCCCC(C)C (stereo not shown) [2-acetyloxystearic acid-(18)-methylnonadecanyl ester] | 0 |
| – | – | CCCCCCCCCCCCC(OC(=O)C(C)C)C(=O)OCCCCCCCCCCCCCCCCCC(C)CC (stereo not shown) [2-isobutyryloxymyristic acid-(18)-methylicosanyl ester] | 0 |
| – | 28.3 | CCCCCCCCCCCCCCCCOC(=O)C(CCCCCCCCCCCCCC)OC(=O)C(C)C (stereo not shown) [2-isobutyryloxypalmitic acid palmityl ester] | 0 |
| – | – | CCCCCCCCCCCCOC(=O)C(CCCCCCCCCC)OC(=O)CC(C)C (stereo not shown) [2-isovaleryloxylauric acid lauryl ester] | 0 |
| – | 52.5 | CCCCCCCCCCCCCCCCOC(=O)C(CCCCCCCCCCCCCC)OC(=O)CCCCCCCCCCCCCCC (stereo not shown) [2-palmitoyloxypalmitic acid palmityl ester] | 0 |

Reference: patent US6531143B1, “α-hydroxy fatty acid derivatives and external compositions containing the same” (Kanebo, Limited, priority 1998, dated 2003)
